Measured values taken from ChEMBL document CHEMBL3120093 (J Med Chem, 2014).

Columns and labels:
[1] = Oral bioavailability in dog at […] after 24 hrs; format: ADME, organism-based, Canis lupus familiaris; details: in vivo
[2] = Permeability of the compound at PH 7.4 by PAMPA; format: ADME; details: read-out: permeability
[3] = AUC in rat at 5 mg/kg, po after 4 hrs; format: ADME, organism-based; set-up: time < 4 hr, dose 5 mg/kg, route oral; details: plasma
[4] = Oral bioavailability in rat at 5 mg/kg after 24 hrs; format: ADME, organism-based; details: in vivo
[5] = AUC in dog at […], po after 24 hrs; format: ADME, organism-based, Canis lupus familiaris; set-up: time < 24 hr, dose 2.3 mg/kg, route oral; details: plasma
[6] = AUC in rat at 5 mg/kg, po after 24 hrs; format: ADME, organism-based; set-up: time < 24 hr, dose 5 mg/kg, route oral; details: plasma
[7] = Drug uptake in rat liver at 5 mg/kg, po after 24 hrs; format: ADME, organism-based; set-up: dose 5 mg/kg, route oral; details: read-out: Drug uptake
[8] = Plasma concentration in rat at 5 mg/kg, po after 24 hrs; format: ADME, organism-based; set-up: dose 5 mg/kg, route oral
[9] = Drug uptake in rat liver at 5 mg/kg, po after 4 hrs; format: ADME, organism-based; set-up: dose 5 mg/kg, route oral; details: read-out: Drug uptake
[10] = Plasma concentration in rat at 5 mg/kg, po after 4 hrs; format: ADME, organism-based; set-up: dose 5 mg/kg, route oral
[11] = Plasma concentration in dog at […], po after 24 hrs; format: ADME, organism-based, Canis lupus familiaris; set-up: dose 2.3 mg/kg, route oral
[12] = Plasma concentration in dog at 3.5 mg/kg, po after 24 hrs; format: ADME, organism-based, Canis lupus familiaris; set-up: dose 3.5 mg/kg, route oral
[13] = Oral bioavailability in dog at 3.5 mg/kg after 24 hrs; format: ADME, organism-based, Canis lupus familiaris; details: in vivo
[14] = AUC in dog at 3.5 mg/kg, po after 24 hrs; format: ADME, organism-based, Canis lupus familiaris; set-up: time < 24 hr, dose 3.5 mg/kg, route oral; details: plasma

| Structure (SMILES) | Papp [2] | AUC at 4 h [3] | concentration at 4 h [9] | concentration at 4 h [10] | further results |
| --- | --- | --- | --- | --- | --- |
| COC(=O)N[C@H](C(=O)N1CCC[C@H]1c1nc(-c2ccc(-c3ccc(-c4c[nH]c([C@@H]5CCCN5C(=O)[C@@H](NC(=O)OC)C(C)C)n4)cc3)cc2)c[nH]1)C(C)C | 49.6 ×10⁻⁶ cm/s | 2.18 µM·h | 2240 nM | 661 nM | bioavailability at 24 h [1]: 108%; bioavailability [4]: 50%; AUC at 24 h [5]: 11 µM·h; AUC at 24 h [6]: 4.8 µM·h; concentration at 24 h [7]: 103 nM; concentration at 24 h [8]: 18 nM; concentration at 24 h [11]: 26 nM |
| CC[C@H](NC(=O)OC)C(=O)N1CCC[C@H]1c1ncc(-c2ccc(-c3ccc(-c4cnc([C@@H]5CCCN5C(=O)[C@H](CC)NC(=O)OC)[nH]4)cc3)cc2)[nH]1 | 38.4 ×10⁻⁶ cm/s |  |  |  |  |
| COC(=O)N[C@H](C(=O)N1CCC[C@H]1c1ncc(-c2ccc(-c3ccc(-c4cnc([C@@H]5CCCN5C(=O)[C@@H](NC(=O)OC)[C@@H](C)OC)[nH]4)cc3)cc2)[nH]1)[C@@H](C)OC | 27.5 ×10⁻⁶ cm/s | 0.472 µM·h | 453 nM | 121 nM |  |
| COC(=O)N[C@H](C(=O)N1CCC[C@H]1c1ncc(-c2ccc(-c3ccc(-c4cnc([C@@H]5CCCN5C(=O)[C@@H](NC(=O)OC)C5CC5)[nH]4)cc3)cc2)[nH]1)C1CC1 | 50 ×10⁻⁶ cm/s |  |  |  |  |
| CCN(CC)[C@@H](C(=O)N1CCC[C@H]1c1ncc(-c2ccc(-c3ccc(-c4cnc([C@@H]5CCCN5C(=O)[C@H](C)NC(=O)OC)[nH]4)cc3)cc2)[nH]1)c1ccccc1 | 25.3 ×10⁻⁶ cm/s | 0.049 µM·h | 1830 nM | 30 nM | concentration at 24 h [12]: 9 nM; bioavailability [13]: 66%; bioavailability [4]: 3.6%; AUC at 24 h [6]: 0.165 µM·h; concentration at 24 h [7]: 178 nM; AUC at 24 h [14]: 1.2 µM·h |
| CC[C@H](NC(=O)OC)C(=O)N1CCC[C@H]1c1ncc(-c2ccc(-c3ccc(-c4cnc([C@@H]5CCCN5C(=O)[C@@H](c5ccccc5)N(CC)CC)[nH]4)cc3)cc2)[nH]1 | 36.3 ×10⁻⁶ cm/s |  | 471 nM |  | bioavailability [4]: 4.3%; concentration at 24 h [7]: 132 nM |
| CCN(CC)[C@@H](C(=O)N1CCC[C@H]1c1ncc(-c2ccc(-c3ccc(-c4cnc([C@@H]5CCCN5C(=O)[C@@H](NC(=O)OC)C(C)C)[nH]4)cc3)cc2)[nH]1)c1ccccc1 | 70.6 ×10⁻⁶ cm/s | 0.034 µM·h | 1230 nM | 13 nM |  |
| O=C([C@@H](c1ccccc1)N1CCCC1)N1CCC[C@H]1c1ncc(-c2ccc(-c3ccc(-c4cnc([C@@H]5CCCN5C(=O)[C@@H](c5ccccc5)N5CCCC5)[nH]4)cc3)cc2)[nH]1 | 3.6 ×10⁻⁶ cm/s | 0.005 µM·h | 80 nM | 0.7 nM |  |
| O=C([C@@H](c1ccccc1)N1CCOCC1)N1CCC[C@H]1c1ncc(-c2ccc(-c3ccc(-c4cnc([C@@H]5CCCN5C(=O)[C@@H](c5ccccc5)N5CCOCC5)[nH]4)cc3)cc2)[nH]1 | 34.9 ×10⁻⁶ cm/s | 0.054 µM·h | 239 nM | 11 nM |  |
| CCN(CC)[C@@H](C(=O)N1CCC[C@H]1c1ncc(-c2ccc(-c3ccc(-c4cnc([C@@H]5CCCN5C(=O)[C@@H](c5ccccc5)N5CCCCC5)[nH]4)cc3)cc2)[nH]1)c1ccccc1 | 33.7 ×10⁻⁶ cm/s |  |  |  |  |
| COC(=O)N[C@@H](C(=O)N1CCC[C@H]1c1ncc(-c2ccc(-c3ccc(-c4cnc([C@@H]5CCCN5C(=O)CNC(C)=O)[nH]4)cc3)cc2)[nH]1)c1ccccc1 | 1.2 ×10⁻⁶ cm/s |  |  |  |  |
| COC(=O)N[C@@H](C(=O)N1CCC[C@H]1c1ncc(-c2ccc(-c3ccc(-c4cnc([C@@H]5CCCN5C(=O)[C@@H](C)NC(C)=O)[nH]4)cc3)cc2)[nH]1)c1ccccc1 | 2.8 ×10⁻⁶ cm/s |  |  |  |  |
| COC(=O)N[C@@H](C(=O)N1CCC[C@H]1c1ncc(-c2ccc(-c3ccc(-c4cnc([C@@H]5CCCN5C(=O)[C@H](C)NC(C)=O)[nH]4)cc3)cc2)[nH]1)c1ccccc1 | 10 ×10⁻⁶ cm/s |  |  |  |  |
| COC(=O)N[C@@H](C)C(=O)N1CCC[C@H]1c1ncc(-c2ccc(-c3ccc(-c4cnc([C@@H]5CCCN5C(=O)[C@H](NC(=O)OC)c5ccccc5)[nH]4)cc3)cc2)[nH]1 | 36.3 ×10⁻⁶ cm/s |  |  |  |  |
| COC(=O)N[C@@H](C)C(=O)N1CCC[C@H]1c1ncc(-c2ccc(-c3ccc(-c4cnc([C@@H]5CCCN5C(=O)[C@H](C)NC(=O)OC)[nH]4)cc3)cc2)[nH]1 | 20.7 ×10⁻⁶ cm/s | 0.281 µM·h | 134 nM | 57 nM |  |
